Laboratory results reported in ChEMBL document CHEMBL1134440, “Discovery of 4-amino-5-(3-bromophenyl)-7-(6-morpholino-pyridin-3-yl)pyrido[2,3-d]pyrimidine, an orally active, non-nucleoside adenosine kinase inhibitor” (J Med Chem, 2001).
pIC50: −log10 of the molar value.

Assays:
[1] = target: Adenosine kinase (Homo sapiens, UniProt P55263); assay: Inhibition of adenosine phosphorylation in confluent IMR-32 (human neuroblastoma) cells.; type: functional, cell-based
[2] = target: Adenosine kinase (Rattus norvegicus, UniProt Q64640); assay: In vitro inhibition of Adenosine kinase (AK)
Adenosine kinase (Rattus norvegicus, UniProt Q64640), sequence (Q64640 whole entry): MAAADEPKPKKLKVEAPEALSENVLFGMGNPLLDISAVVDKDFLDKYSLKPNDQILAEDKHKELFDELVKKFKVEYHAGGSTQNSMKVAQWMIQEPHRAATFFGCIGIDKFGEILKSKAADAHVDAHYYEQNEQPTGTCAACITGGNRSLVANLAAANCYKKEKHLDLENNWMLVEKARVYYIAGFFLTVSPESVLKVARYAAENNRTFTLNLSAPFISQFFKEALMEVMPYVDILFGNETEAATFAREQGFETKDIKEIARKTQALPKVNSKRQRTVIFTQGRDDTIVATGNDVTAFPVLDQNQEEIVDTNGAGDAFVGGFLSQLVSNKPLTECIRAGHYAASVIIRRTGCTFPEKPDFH

Adenosine kinase (Homo sapiens, UniProt P55263), sequence (P55263 whole entry): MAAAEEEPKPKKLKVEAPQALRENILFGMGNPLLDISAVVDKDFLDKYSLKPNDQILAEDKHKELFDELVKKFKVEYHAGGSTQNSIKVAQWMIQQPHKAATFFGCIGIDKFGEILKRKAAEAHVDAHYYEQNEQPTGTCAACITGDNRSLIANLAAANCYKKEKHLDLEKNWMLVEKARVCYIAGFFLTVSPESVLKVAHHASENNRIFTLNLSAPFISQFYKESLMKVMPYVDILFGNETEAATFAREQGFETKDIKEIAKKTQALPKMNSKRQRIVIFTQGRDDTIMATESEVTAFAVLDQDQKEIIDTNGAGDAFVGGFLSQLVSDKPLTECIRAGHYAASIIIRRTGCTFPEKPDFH

Row | pIC50 [1] | pIC50 [2] | SMILES
1 | 6.25 | 7.04 | COc1ccc(-c2cc3c(N)ncnc3nc2-c2ccc(N(C)C)cc2)cc1
2 | 4.59 | 5.70 | Nc1ncnc(N[C@@H]2O[C@H](CO)[C@@H](O)[C@H]2O)c1[N+](=O)[O-]
3 | < 5.00 | 5.26 | Nc1ncnc2nc(-c3ccccc3)cnc12
4 | 5.20 | 7.82 | NC[C@H]1O[C@@H](n2cnc3c(N)ncnc32)[C@H](O)[C@@H]1O
5 | < 5.00 | 5.76 | Nc1ccc(-c2cnc3c(N)ncnc3n2)cc1
6 | 6.78 |  | CN(C)c1ccc(-c2cc(-c3cccc(Br)c3)c3c(N)ncnc3n2)cc1
7 | 7.49 | 8.74 | CN(C)c1ccc(-c2cc(-c3cccc(Br)c3)c3c(N)ncnc3n2)cn1
8 | < 6.00 | 7.20 | CN(C)c1ccc(-c2nc3ncnc(N)c3cc2-c2ccc(C(C)(C)C)cc2)cc1
9 | 5.44 | 6.36 | CN(C)c1ccc(-c2cnc3c(N)ncnc3n2)cc1
10 | 6.87 | 8.55 | C[C@H]1O[C@@H](n2cc(-c3ccccc3)c3c(Nc4ccc(F)cc4)ncnc32)[C@H](O)[C@@H]1O
11 | 6.15 | 7.18 | COC(=O)c1cccc(-c2cc3c(N)ncnc3nc2-c2ccc(N(C)C)cc2)c1
12 | 6.33 |  | CN(C)c1ccc(-c2cc(-c3ccccc3)c3c(N)ncnc3n2)cc1
13 | < 5.00 | 6.11 | CN(C)c1ccc(-c2ccc3c(N)ncnc3n2)cc1
14 | 6.00 | 6.40 | Nc1ncnc2nc(-c3ccc(N4CCOCC4)cc3)cnc12
15 | < 5.00 | 5.32 | Nc1ncnc2nc(-c3ccc([N+](=O)[O-])cc3)cnc12
16 | 6.48 | 7.60 | CN(C)c1ccc(-c2nc3ncnc(N)c3nc2-c2ccccc2)cc1
17 | < 5.00 | 5.70 | COc1ccc(-c2cnc3c(N)ncnc3n2)cc1
18 | 6.33 | 8.08 | CN(C)c1ccc(-c2cc(C3CCCCC3)c3c(N)ncnc3n2)cc1
19 | 6.30 | 7.13 | Cc1ccc(-c2cc3c(N)ncnc3nc2-c2ccc(N(C)C)cc2)cc1
20 | 7.30 | 8.77 | Nc1ncnc2nc(-c3ccc(N4CCOCC4)nc3)cc(-c3cccc(Br)c3)c12
